Our source for the Activity values is ChEMBL document CHEMBL3272121, “Hypolipidemic analogues of ethyl 4-benzyloxybenzoate” (J Med Chem, 1977).

The structures appear in SMILES notation.

The subject of series [1] is Rattus norvegicus. The series can be described thus: Hypolipidemic activity in CFY Sprague-Dawley rat assessed as serum cholesterol level at 0.25% dietary level administered for 7 days relative to control. The class given is functional.
Series [2] has as its system Rattus norvegicus. As to the kind of experiment: Hypolipidemic activity in CFY Sprague-Dawley rat assessed as serum triglyceride level at 0.25% dietary level administered for 7 days relative to control. The series is classed as functional.
The subject of series [3] is Rattus norvegicus. As to the kind of experiment: Toxicity in CFY Sprague-Dawley rat assessed as body weight gain at 0.25% dietary level administered for 7 days relative to control. The class given is organism-based. The settings on record: in vivo, po, 168 h.
Series [4] concerns Rattus norvegicus. The series can be described thus: Toxicity in CFY Sprague-Dawley rat assessed as relative liver weight at 0.25% dietary level administered for 7 days relative to control. The series is classed as organism-based. The settings on record: in vivo, po, 168 h.

On to `CCCCOC(=O)c1ccc(OCc2ccccc2)cc1`, for which the Activity in the series on Rattus norvegicus [1] was -10%; in the series with Rattus norvegicus [2], -47%; in the series with Rattus norvegicus [3], -18%; in the series on Rattus norvegicus [4] it was 4%.
In the same order, the values of `CCOC(=O)CCc1ccc(OCc2cccc(F)c2)cc1` are -11%, 57%, 12% and 7%.
`CCOC(=O)c1ccc(OCc2ccccc2Cl)cc1`: the Activity in the series on Rattus norvegicus [1] is -7%; in the series with Rattus norvegicus [2], -46%; with Rattus norvegicus [3], -16%; in the series on Rattus norvegicus [4], 7%.
In the same order, the values of `CCCc1ccc(OCc2ccc(C)cc2)c(OC)c1` are -13%, 216%, -18% and 33%.
The corresponding values for `O=C([O-])c1ccc(OCc2ccccc2)cc1.O=C([O-])c1ccc(OCc2ccccc2)cc1.[Ca+2]` are -8%, -53%, -12% and 0%.
The corresponding values for `CCOC(=O)c1ccc(OCc2ccc(OC)c(OC)c2)cc1` are -1%, -33%, -20% and 11%.
For the molecule `CCCCCCOC(=O)c1ccc(OCc2ccccc2)cc1`, the Activity was -9% with Rattus norvegicus [1], -64% with Rattus norvegicus [2], -3% in the series on Rattus norvegicus [3] and 8% in the series on Rattus norvegicus [4].
The corresponding values for `Cc1ccc(OCc2ccccc2)cc1C` are -3%, -62%, 24% and 13%.
Turning to `O=C([O-])c1ccc(OCc2ccccc2)cc1.[K+]`, the Activity was -20% in the series on Rattus norvegicus [1], -57% in the series with Rattus norvegicus [2], -12% in the series on Rattus norvegicus [3] and 0% in the series with Rattus norvegicus [4].
The corresponding values for `CCOC(=O)c1ccc(OCc2ccc(OC)cc2)cc1` are -7%, -55%, -52% and 20%.
`O=C(O)c1ccc(OCc2ccc(Cl)c(Cl)c2)cc1`: the Activity in the series with Rattus norvegicus [1] is on record as -9%; in the series with Rattus norvegicus [2], -20%; in the series on Rattus norvegicus [3], 7%; with Rattus norvegicus [4], 18%.
In the same order, the values of `Cc1ccc(COc2ccc(C(=O)O)cc2)cc1` are -10%, -57%, -2% and 11%.
Regarding `CCOC(=O)c1ccc(OCc2ccc([N+](=O)[O-])cc2)cc1`, the Activity with Rattus norvegicus [1] is on record as -12%; in the series with Rattus norvegicus [2] it was -28%; in the series on Rattus norvegicus [3], -15%; in the series with Rattus norvegicus [4], -2%.
As for `CCCCCCCCCCOC(=O)c1ccc(OCc2ccccc2)cc1`, the Activity in the series with Rattus norvegicus [1] is given as -9%; with Rattus norvegicus [2], -64%; in the series on Rattus norvegicus [3] it was -17%; in the series with Rattus norvegicus [4], 13%.
In the same order, the values of `CCOC(=O)c1ccc(OCc2cccc(OC)c2)cc1` are -10%, -32%, 2% and 4%.
The corresponding values for `CCOC(=O)c1ccc(COc2ccc(C#N)cc2)cc1` are -12%, -21%, -46% and 20%.
The corresponding values for `CCOC(=O)CCc1ccc(OCc2cccc(OC)c2OC)cc1` are 7%, -9%, 4% and 23%.
With `CCOC(=O)c1ccc(COc2ccc(C(=O)OCC)cc2)cc1`, the Activity with Rattus norvegicus [1] is given as -11%; in the series with Rattus norvegicus [2], -60%; in the series with Rattus norvegicus [3] it was 3%; in the series with Rattus norvegicus [4], -2%.
The corresponding values for `CCOC(=O)c1ccc(COc2ccc(Cl)cc2)cc1` are -13%, 7%, -15% and 42%.
For `COc1cc(C(=O)O)ccc1OCc1ccccc1`, the Activity was 0% in the series on Rattus norvegicus [1], -28% in the series on Rattus norvegicus [2], 15% in the series on Rattus norvegicus [3] and 6% in the series on Rattus norvegicus [4].
In the same order, the values of `COc1cc(C(C)=O)ccc1OCc1ccccc1` are 5%, -51%, -37% and 13%.
The corresponding values for `CCCCCCCCCCCCc1ccc(OCc2ccccc2)cc1` are 2%, -37%, 9% and 8%.
In the same order, the values of `CCOC(=O)CCc1ccc(OCc2ccccc2F)cc1` are -4%, -49%, 14% and 7%.
For the molecule `CCOC(=O)c1ccc(OCc2ccc(Cl)c(Cl)c2)cc1`, the Activity with Rattus norvegicus [1] was -7%; in the series with Rattus norvegicus [2], 5%; with Rattus norvegicus [3] it was -5%; in the series with Rattus norvegicus [4], 10%.
In the same order, the values of `CCCCCCCCCCCCOC(=O)c1ccc(OCc2ccccc2)cc1` are -11%, -57%, -3% and 6%.
The corresponding values for `CCOC(=O)c1ccc(COc2ccc(F)cc2)cc1` are -14%, -50%, 16% and 19%.
The corresponding values for `COc1ccccc1COc1ccc(C(=O)O)cc1` are -29%, 71%, 3% and 17%.
With `CCOC(=O)c1ccc(COc2ccc(Br)cc2)cc1`, the Activity in the series with Rattus norvegicus [1] is recorded as -6%; in the series on Rattus norvegicus [2] it was -16%; with Rattus norvegicus [3] it was 3%; in the series on Rattus norvegicus [4], 24%.
The corresponding values for `O=C(OC1CCCC1)c1ccc(OCc2ccccc2)cc1` are -14%, -29%, -4% and -14%.
The corresponding values for `CCOC(=O)Cc1ccc(OCc2cccc(OC)c2OC)cc1` are 1%, -25%, 12% and 20%.
The corresponding values for `N#Cc1ccc(OCc2ccccc2)cc1` are 7%, -31%, -14% and 8%.
Turning to `CCOC(=O)c1cccc(OCc2ccccc2)c1`, the Activity is 4% in the series with Rattus norvegicus [1], -30% in the series with Rattus norvegicus [2], 4% in the series on Rattus norvegicus [3] and 6% in the series with Rattus norvegicus [4].
As to `O=C(c1ccc(OCc2ccccc2)cc1)N1CCCCC1`, the Activity with Rattus norvegicus [1] is 14%; in the series with Rattus norvegicus [2] it was 10%; with Rattus norvegicus [3], -67%; in the series on Rattus norvegicus [4], 2%.
On to `CCCCCCCCCCCCNC(=O)c1ccc(OCc2ccccc2)cc1`, for which the Activity in the series with Rattus norvegicus [1] is recorded as 1%; in the series with Rattus norvegicus [2], -11%; with Rattus norvegicus [3], 2%; with Rattus norvegicus [4], -5%.
The corresponding values for `OCc1ccc(OCc2ccccc2)cc1` are -3%, -45%, 11% and 15%.
In the same order, the values of `O=Cc1ccc(OCc2ccc(F)cc2)cc1` are -15%, -59%, 16% and 15%.
Take `O=C(Oc1ccccc1)c1ccc(OCc2ccccc2)cc1`: the Activity in the series on Rattus norvegicus [1] is 0%; in the series with Rattus norvegicus [2], -18%; in the series with Rattus norvegicus [3] it was -1%; with Rattus norvegicus [4] it was 0%.
For the molecule `CCOC(=O)c1ccc(OCc2ccccc2C)cc1`, the Activity is reported as -10% in the series on Rattus norvegicus [1], -58% in the series with Rattus norvegicus [2], -23% in the series on Rattus norvegicus [3] and 0% in the series on Rattus norvegicus [4].
Consider `CCOC(=O)c1ccc(COc2ccc(C)cc2C)cc1`, for which the Activity in the series on Rattus norvegicus [1] was 3%; in the series on Rattus norvegicus [2], 2%; in the series on Rattus norvegicus [3] it was 0%; in the series with Rattus norvegicus [4], 0%.
Take `CCOC(=O)c1ccc(COc2ccc(OC)cc2)cc1`: the Activity in the series on Rattus norvegicus [1] is recorded as 4%; in the series on Rattus norvegicus [2] it was -57%; in the series with Rattus norvegicus [3], -19%; in the series with Rattus norvegicus [4], -4%.
For `CCOC(=O)CCCc1ccc(OCc2ccccc2)cc1`, the Activity with Rattus norvegicus [1] is -10%; in the series with Rattus norvegicus [2] it was -59%; with Rattus norvegicus [3] it was -57%; in the series on Rattus norvegicus [4], 9%.
In the same order, the values of `CCOC(=O)c1ccccc1OCc1ccccc1` are 0%, -15%, -26% and -2%.
Regarding `CCOC(=O)c1ccc(COc2ccc(C)c(C)c2)cc1`, the Activity in the series on Rattus norvegicus [1] is 3%; in the series with Rattus norvegicus [2], 109%; in the series with Rattus norvegicus [3], -1%; in the series on Rattus norvegicus [4], 10%.
The corresponding values for `CC(=O)c1ccc(OCc2ccccc2)cc1` are 9%, -46%, -11% and -6%.
The corresponding values for `O=C(NC1CCCCC1)c1ccc(OCc2ccccc2)cc1` are -5%, -18%, -21% and 5%.
In the same order, the values of `NC(=O)c1ccc(OCc2ccccc2)cc1` are -1%, -63%, -2% and 13%.
